These results are taken from patent US20090131320A1, “PEPTIDES MODULATING THE ACTIVITY OF THE ENGRAILED TRANSCRIPTION FACTOR” (Centre National De La Recherche Scient., priority 2003, published 2009).

“Also recorded” adds a separate entry of the source.

The test system of assay [1] is MAP1B promoter. Kind of assay: MAP1B promoter luciferase reporter (pMAP-luc) in CHP 100 cells, protein or peptide alone. The following applies: luciferase 24 hours after transfection. Format: cell-based. The protocol: (§1) The transcriptional activity of Engrailed is evaluated as described by Montesinos et al. (J. Neurosci., 21, 3350-9, 2001), by measuring the expression of the luciferase reporter gene placed in the plasmid pMAP-luc under the control of a promoter that is a target for Engrailed, the MAP1B (microtubule-associated protein 1B) promoter.
(§2) Cells of the neuroepithelial line CHP 100 (Schlesinger et al, Cancer Res. 36, […], 1976) are cultured in RPMI 1640 (Life Technologies, Gaithersburg, Md.) supplemented with 16 mM glucose, 15% fetal calf serum, 5 U/ml of penicillin and 5 μg/ml of streptomycin, and cotransfected by electroporation with pMAP-luc and one of the following vectors:
(§3) pCL9mEn2 (Mainguy et al., Natural Biotechnol. 18: 746-749, 2000) which contains the sequence encoding the whole chick Engrailed-2 protein, under the control of the CMV promoter;
pCL9mEn2ΔH1 (Joliot et al., Curr Biol. 8: 856-863, 1998), which contains the sequence encoding the chick Engrailed-2 protein from which amino acids 36 to 46 of the homeodomain (DNA-binding sequence) have been deleted, under the control of the CMV promoter;
(§4) pCL9 mHDEn2C, which contains the sequence encoding the chick Engrailed-2 protein from which amino acids 10 to 185 have been deleted, under the control of the CMV promoter.
(§5) The electroporation is carried out with a maximum of 10 μg of plasmid DNA (2 μg of reporter plasmid pMAP-luc+variable amounts of En2 expression vector) per 8×10^5 cells in 350 μl of medium, at 1050 μF and at […]. 400 μl of medium are then added and the combination is allowed to stand for 10 min. The cells are then placed in culture, after washing, in two dishes (3.5 cm diameter).
(§6) The luciferase activity is assayed 24 hours after transfection. The cells are rinsed with PBS. Lysis buffer (20 mM Tris/H3PO4, pH 7.8, 10 mM MgCl2, 15% glycerol, 1 mM EDTA, 1% Triton-X 100, 1.25 mM ATP, 10 μg/ml luciferin) is added to the cells. After incubation at 4° C. for 30 min, the luciferase activity is measured by luminometry (Berthold Lumat LB 9501 luminometer).
In general terms: A reporter such as luciferase makes a cellular process visible.

In assay [2] the target is T1, chick Engrailed-2 protein (Gallus gallus, UniProt Q05917).
T1 construct: expressed in transfected cells; host or cells: CHP100 neuroepithelial cell line, electroporated with pCL9mEn2
T1 sequence (Q05917 1-289): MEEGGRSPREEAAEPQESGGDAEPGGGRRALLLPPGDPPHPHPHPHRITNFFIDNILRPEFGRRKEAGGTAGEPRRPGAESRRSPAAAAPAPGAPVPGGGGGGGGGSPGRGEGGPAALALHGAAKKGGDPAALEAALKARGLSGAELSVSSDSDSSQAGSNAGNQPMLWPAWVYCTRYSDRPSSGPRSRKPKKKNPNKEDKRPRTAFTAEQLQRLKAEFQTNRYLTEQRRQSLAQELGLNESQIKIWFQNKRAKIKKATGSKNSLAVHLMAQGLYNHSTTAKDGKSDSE
Nature of the assay: Effect of peptides on activation of the MAP1B promoter by Engrailed-2 in CHP100 cells (luciferase). The class given is cell-based. The following applies: for effect on the activation of MAP1B by Engrailed (in words): peptide + En2 cotransfected. How it is done: as §1, §2, §3, §5, §6
The CHP100 cells are cotransfected by electroporation, as defined above, with pMAP-luc (2 μg), pCL9mEn2 or pCL9 mHDEn2C (4 μg) and 4 μg of pCS2-pep1 or pCS2-pep2.

The target in assay [3] is T2, HDEn2C (chick Engrailed-2 protein from which amino acids 10 to 185 have been deleted) (Gallus gallus, UniProt Q05917, DEL10-185).
T2 construct: expressed in transfected cells; host or cells: CHP100 neuroepithelial cell line, electroporated with pCL9 mHDEn2C
T2 sequence (Q05917 with tags, fused parts or gaps DEL10-185): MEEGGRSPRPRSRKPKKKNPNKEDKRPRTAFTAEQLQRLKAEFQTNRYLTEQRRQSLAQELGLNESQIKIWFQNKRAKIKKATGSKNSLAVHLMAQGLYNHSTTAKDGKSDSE
Kind of assay: Effect of peptides on activation of the MAP1B promoter by HDEn2C (Engrailed homeodomain) in CHP100 cells (luciferase). The following applies: HDEn2C + peptide cotransfected. The class given is cell-based. How it is done:
as §1, §2, §4
The electroporation is carried out with a maximum of 10 μg of plasmid DNA (2 μg of reporter plasmid pMAP-luc+variable amounts of En2 expression vector) per 8×10^5 cells in 350 μl of medium, at 1050 μF and at […]. 400 μl of medium are then added and the combination is allowed to stand for 10 min. […]
The luciferase activity is assayed 24 hours after transfection. […] After incubation at 4° C. for 30 min, the luciferase activity is measured by luminometry (Berthold Lumat LB 9501 luminometer). […]

The subject of assay [4] is Engrailed. Kind of assay: Effect of peptides on the activity of Engrailed in primary cultures of mesencephalic neurons (pMAP-luc). Format: cell-based. To be noted: primary mouse embryonic mesencephalic neurons; for effect on the activation of the MAP1B promoter in neurons: endogenous Engrailed. The protocol: In order to verify the functionality of peptides 1 and 2 in a physiological cellular context, the effect of these peptides was tested in primary cultures of mouse embryonic mesencephalic neurons.
Fragments of mouse mesencephalon (embryonic day 13.5) are incubated at 24° C. for 5 min in trypsin-EDTA, then washed in a phosphate buffer, pH 7.5, supplemented with 33 mM glucose (PBS) and 10% fetal calf serum, and subsequently incubated at 37° C. for 10 min in […] of DnaseI (Sigma, Saint Louis, Mo.). The cells are dissociated mechanically, washed three times with PBS, and placed in culture at a density of 200 000 cells/cm^2, in wells pre-saturated with D,L-poly-ornithine (1.5 μg/ml) and laminin (5 μg/ml). The culture medium (MMS) consists of DMEM/F12 (1/1, Life Technologies, Cergy, France), with 33 mM glucose, 2 mM glutamine, 10 mM HEPES, pH 7.4, 9 mM NaHCO^−3, 5 U/ml of penicillin and 5 μg/ml of streptomycin. Added to MSS are 0.1% of ovalbumin, 25 μg/ml of insulin, 100 μg/ml of transferrin, 20 nM of progesterone, 60 μM of putrescine and 30 nM selenium (M2OV).
The day after the cells were placed in culture, the medium, in each well, is replaced with 600 μl of MSS, without penicillin or streptomycin. 100 μl of the transfection mixture comprising pMAP-luc (0.5 μg) and 0.5 μg of pCS2-pep1 or pCS2-pep2, and 1 mg/ml of Lipofectamine 2000 (Invitrogen) in OPTI-MEM medium (qs 100 μl), mixed beforehand for 20 min at 24° C., are added to each well. The cells are then incubated at 37° C. for 2 h 30 min. The medium is then replaced with M20V.

Assay [5] concerns Engrailed. Nature of the assay: In vivo effect on the transcriptional activity of Engrailed, pMAP-lacZ β-galactosidase reporter in the neural tube of chick embryos. The following applies: chick embryo neural tube HH8-HH10, electroporation, 24 h. How it is done: The effect of pep1 or pep2 on the transcriptional activity of Engrailed was evaluated by measuring the expression of the β-galactosidase reporter gene placed in the plasmid pMAP-lacZ (described by Montesinos et al., 2001, mentioned above) under the control of the MAP1B promoter, in the neural tube of chick embryos at the HH8-HH10 stage.
The vectors pCS2-pep1 or pCS2-pep2, and also the vector pMAP-lacZ vector (each vector is used at a concentration of 1 μg/μl), were introduced by electroporation into the neural tube of chick embryos at the HH8-HH10 stage in accordance with the protocol of Muramatsu et al. (1997), with a BTX ECM 830 electroporator (4 pulses of 25 V and 50 msec) (Genetronics, San Diego, Calif.). The vectors were injected into the neural tube using a micropipette.

For HOXA5: another homeodomain protein, the “activation of the MAP1B promoter by the protein or peptide alone” value (shortened to “activation … by the protein or peptide alone”) in assay [1] is listed as “activated”.

As for “KVWDIRYTTPHA [aOTX2, reference compound]”, the “effect on the activation of MAP1B by Engrailed (in words)” value (“effect on the activation … (in words)” for short) in assay [2] is listed as “does not modify”.

In the case of SWWETQLIASSG [Peptide 1], the “effect on the activation … (in words)” value in assay [2] is recorded as “activating effect”. In addition, the “increase of the activation of MAP1B by Engrailed” value in assay [2] (peptide introduced at the same time as Engrailed-2 (4 μg each vector)) is listed as “approximately 50%”. In assay [1], the “activation … by the protein or peptide alone” value is listed as “no action”. Also, the “effect on the activation of MAP1B by the HDEn2C peptide” value in assay [3] was “greatly increased”. In addition, the “effect on the activation of the MAP1B promoter in neurons” value in assay [4] was “increased”. Besides, the “effect on the activation of the MAP1B promoter in vivo (β-galactosidase)” value in assay [5] is reported as “increased”.

Regarding WSWNEEVWFPFT [Peptide 2], in assay [2], the “effect on the activation … (in words)” value is listed as “inhibitor; also recorded: inhibitory effect”. In assay [1], the “activation … by the protein or peptide alone” value was “no effect”. Further, the “effect on the activation of MAP1B by the HDEn2C peptide” value in assay [3] is listed as “increases the activation”. Also, in assay [4], the “activating effect compared with peptide 1 in neurons” value is given as “greater than that of peptide 1” and the “effect on the activation of the MAP1B promoter in neurons” value is reported as “increased”. The “effect on the activation of the MAP1B promoter in vivo (β-galactosidase)” value in assay [5] was “increases the activation”.

B1: Engrailed-2: whole chick Engrailed-2 protein expressed from pCL9mEn2 under the CMV promoter (protein)
chain: T1 sequence (Q05917 1-289)
Regarding B1, the “activation … by the protein or peptide alone” value in assay [1] was “capable of activating”.
